In PMC10460844, “Real‐Time Monitoring of Multitarget Antimicrobial Mechanisms of Peptoids Using Label‐Free Imaging with Optical Diffraction Tomography” (Advanced Science, 2023):
In brackets after ≈: the same amount, converted by molar mass. Where two headings read alike, the source gives them in different places. Square brackets hold non-standard residues; d marks the D form. Peptide text beside a SMILES is read from it. Gly(N(CH2)2(3-indolyl)) = O=C(O)CNCCc1c[nH]c2ccccc12; Nspe = C[C@H](NCC(=O)O)c1ccccc1; Nlys = NCCCCNCC(=O)O

What was measured:
S. aureus ATCC 25923 = format: cell-based, Staphylococcus aureus
How it was run: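 Visual turbidity endpoint defines the MIC. Inoculum: secondary culture diluted to OD 0.001, ≈2–5 × 10^5 CFU mL^−1, in cation-adjusted MHB2 with 0.02% bovine serum albumin and 0.001% acetic acid; six 2-fold dilutions from 25 µM, run in triplicate.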

E. coli ATCC 25922 = test: NPN uptake assay (outer membrane); format: cell-based; settings: E. coli ATCC 25922, 5 mM HEPES pH 7.2, 10 µM NPN, fluorescence
Method: 14. In vitro biological assays […]
The ability of peptoids to increase the permeability of the outer membrane of Gram-negative bacteria was determined by measuring the incorporation of the NPN fluorescent dye into the outer membrane of E. coli ATCC 25922. Bacterial cells were suspended to a final concentration of OD600 = 0.05 in 5 mM HEPES buffer, pH 7.2, containing 5 mM KCN. Then […]
200 μL NPN dye was added to wells of a 96 well plate to produce a final concentration of 10 μM, and the background fluorescence was recorded (λex = 350 nm, λem = 420 nm). Aliquots of peptoids were added to the well, and fluorescence was recorded as a function of time until there was no further increase in fluorescence. Increases of the permeability of the outer membrane after the addition of peptoids was reflected by increased fluorescence values as a result of NPN incorporation into the membrane. […]

E. faecalis KCTC 3511 = format: cell-based
S. typhimurium SL 1344 = format: cell-based
rat erythrocytes = test: Hemolysis assay; format: cell-based
How it was run: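 Washed Sprague-Dawley rat erythrocytes (10% suspension in PBS pH 7.4) mixed with peptoids (0–100 µM), 60 min at 37 °C; supernatant A540 expressed as % of 1% Triton X-100 lysis. HC10/HC50 are concentrations giving 10%/50% hemolysis; Hmax is hemolysis at 100 µM.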

E. coli ML-35 cells = test: ONPG hydrolysis assay (inner membrane); format: cell-based; settings: 1.5 mM ONPG, 10 mM sodium phosphate pH 7.4, absorbance 405 nm
Method: The permeability of the inner membrane was determined using E. coli ML-35 cells […]
The intact bacterial inner membrane is non-permeable to o-nitrophenyl-β-D-galactopyranoside (OPNG), a chromogenic substrate of the β-galactosidase.
Following damage to the inner membrane, OPNG enters the cells and is metabolized by β-galactosidase creating a chromogenic […]. E. coli cells were washed in 10 mM sodium phosphate (pH 7.4) containing 100 mM NaCl and resuspended in the same buffer at a final concentration of OD600 = 0.5 containing 1.5 mM ONPG. The hydrolysis of ONPG and generation of o-nitrophenol over time were monitored as absorbance change at 405 nm following the addition of peptoids. […]

E. faecium KCTC 13225 = format: cell-based
P. aeruginosa KCTC 1637 = format: cell-based
[1] = Table S2, broth dilution, MHB2, 37 °C 24 h, max 25 µM, mean of triplicate
[2] = Table S3, counter-ion exchange series, mean of triplicate
[3] = gram-positive pathogenic strain, mean of triplicates

Structure (SMILES) | MIC S. aureus ATCC25923 (S. aureus ATCC 25923; [1]) [µM] | MIC S. aureus ATCC25923 (S. aureus ATCC 25923; [2]) [µM] | outer membrane disruption (NPN uptake) (E. coli ATCC 25922) | MIC E. faecalis KCTC 3511 (E. faecalis KCTC 3511; KCTC 3511) [µM] | MIC S. typhimurium SL 1344 (S. typhimurium SL 1344; SL 1344) [µM] | H max (100 µM) (rat erythrocytes) [%] | HC10 (rat erythrocytes; pH 7.4) [µM] | HC50 (rat erythrocytes; pH 7.4) [µM] | HC10 (rat erythrocytes; red cells of rat) [µM] | inner membrane disruption (ONPG hydrolysis) (E. coli ML-35 cells) | MIC E. faecium KCTC 13225 (E. faecium KCTC 13225; KCTC 13225) [µM] | MIC P. aeruginosa KCTC 1637 (P. aeruginosa KCTC 1637; KCTC 1637) [µM] | also measured
C[C@@H](c1ccccc1)N(CC(=O)N(CCCCN)CC(=O)N(CC(=O)N(CC(=O)N(CCCCN)CC(=O)N(CC(=O)N(CC(=O)N(CCCCN)CC(=O)N(CCc1c[nH]c2ccccc12)CC(=O)N(CCc1c[nH]c2ccccc12)CC(N)=O)[C@@H](C)c1ccccc1)[C@@H](C)c1ccccc1)[C@@H](C)c1ccccc1)[C@@H](C)c1ccccc1)C(=O)CN(C(=O)CNCCCCN)[C@@H](C)c1ccccc1 [peptoid 11] (H-[Nlys][Nspe][Nspe][Nlys][Nspe][Nspe][Nlys][Nspe][Nspe][Nlys][Gly(N(CH2)2(3-indolyl))][Gly(N(CH2)2(3-indolyl))]-NH2) | 1.6 (≈ 3.04 µg/mL) | 1.6 (≈ 3.04 µg/mL) | strongly disrupted | <0.8 | 25 (≈ 47.4 µg/mL) | 103.4 ± 3.2 | 8.3 | 22.2 | 6.9 | strongly disrupted | <0.8 | 3.1 (≈ 5.88 µg/mL) | Hmax (100 µM) (rat erythrocytes): 111.9±2.7%; HC50 (rat erythrocytes; red cells of rat): 27.5 µM
C[C@@H](c1ccccc1)N(CC(N)=O)C(=O)CN(C(=O)CN(CCCCN)C(=O)CN(C(=O)CN(C(=O)CN(CCCCN)C(=O)CN(C(=O)CN(C(=O)CN(CCCCN)C(=O)CN(C(=O)CN(C(=O)CNCCCCN)[C@@H](C)c1ccccc1)[C@@H](C)c1ccccc1)[C@@H](C)c1ccccc1)[C@@H](C)c1ccccc1)[C@@H](C)c1ccccc1)[C@@H](C)c1ccccc1)[C@@H](C)c1ccccc1 [peptoid 1, reference compound] (H-[Nlys][Nspe][Nspe][Nlys][Nspe][Nspe][Nlys][Nspe][Nspe][Nlys][Nspe][Nspe]-NH2) | 1.6 (≈ 2.91 µg/mL) | 1.6 (≈ 2.91 µg/mL) | strongly disrupted |  |  |  |  |  |  | strongly disrupted |  |  | MIC E. faecalis KCTC 3511 (E. faecalis KCTC 3511; [3]): 0.8 µM (≈ 1.46 µg/mL); MIC S. typhimurium SL 1344 (S. typhimurium SL 1344; gram-negative pathogenic strain, mean of triplicates): 25 µM (≈ 45.5 µg/mL); HC10 (rat erythrocytes; Table S2, 10% hemolysis in rat erythrocytes, PBS pH 7.4, 37 °C 60 min, mean of triplicate): 8.3 µM; HC50 (rat erythrocytes; Table S2, 50% hemolysis in rat erythrocytes, PBS pH 7.4, 37 °C 60 min, mean of triplicate): 22.9 µM; HC10 (rat erythrocytes; Table S3, counter-ion exchange series, 10% hemolysis in rat erythrocytes, mean of triplicate): 15.9 µM; HC50 (rat erythrocytes; Table S3, counter-ion exchange series, 50% hemolysis in rat erythrocytes, mean of triplicate): 49.0 µM; Hmax (100 µM) (rat erythrocytes; Table S3, counter-ion exchange series, hemolysis at 100 µM): 72.1±2.1%; H max (100 µM) (rat erythrocytes; percentage of hemolysis at the highest concentration tested (100 µM), rat erythrocytes): 112.3 ± 0.7%; MIC E. faecium KCTC 13225 (E. faecium KCTC 13225; [3]): <0.8 µM; MIC P. aeruginosa KCTC 1637 (P. aeruginosa KCTC 1637; gram-negative pathogenic strain, maintained in refined LB media, mean of triplicates): 6.3 µM (≈ 11.5 µg/mL)
C[C@@H](c1ccccc1)N(CC(=O)N(CCCCN)CC(=O)N(CCc1c[nH]c2ccccc12)CC(=O)N(CCc1c[nH]c2ccccc12)CC(N)=O)C(=O)CN(CCCCN)C(=O)CN(CCCCN)C(=O)CN(C(=O)CN(C(=O)CN(CCCCN)C(=O)CN(C(=O)CN(C(=O)CNCCCCN)[C@@H](C)c1ccccc1)[C@@H](C)c1ccccc1)[C@@H](C)c1ccccc1)[C@@H](C)c1ccccc1 [peptoid 29] (H-[Nlys][Nspe][Nspe][Nlys][Nspe][Nspe][Nlys][Nlys][Nspe][Nlys][Gly(N(CH2)2(3-indolyl))][Gly(N(CH2)2(3-indolyl))]-NH2) | 6.3 (≈ 11.7 µg/mL) |  | somewhat lower | 3.1 (≈ 5.78 µg/mL) | 6.3 (≈ 11.7 µg/mL) | 9.8 ± 1.8 | > 100 | > 100 | 88.6 | lower than that seen with more hydrophobic peptoids | 1.6 (≈ 2.98 µg/mL) | 3.1 (≈ 5.78 µg/mL) | MIC S. aureus ATCC25923 (S. aureus ATCC 25923; ATCC 25923): 12.5 µM (≈ 23.3 µg/mL); HC50 (rat erythrocytes): > 100 µM
